Laboratory results from ChEMBL document CHEMBL5678810.

How the values were obtained:
[1] = biological target: Death-associated protein kinase 3 (Homo sapiens) (UniProt O43293); assay: Inhibition of T7 bacteriophage fused human DAPK3 at 10 uM by KINOMEscan analysis relative to control; values are per cent of control
[2] = biological target: Serine/threonine-protein kinase ULK2 (Homo sapiens) (UniProt Q8IYT8); assay: Inhibition of T7 bacteriophage fused human ULK2 at 10 uM by KINOMEscan analysis relative to control
[3] = biological target: Serine/threonine-protein kinase Nek2 (Homo sapiens) (UniProt P51955); assay: Inhibition of T7 bacteriophage fused human NEK2 at 10 uM by KINOMEscan analysis relative to control
[4] = biological target: Mitogen-activated protein kinase kinase kinase 1 (Homo sapiens) (UniProt Q13233); assay: Inhibition of T7 bacteriophage fused human MAP3K1 at 10 uM by KINOMEscan analysis relative to control; values are per cent of control
[5] = biological target: Tyrosine-protein kinase BTK (Homo sapiens) (UniProt Q06187); assay: Inhibition of T7 bacteriophage fused human BTK at 10 uM by KINOMEscan analysis relative to control
[6] = biological target: Phosphatidylinositol 3-kinase C2 domain-containing subunit gamma (Homo sapiens) (UniProt O75747); assay: Inhibition of T7 bacteriophage fused human PIK3C2G at 10 uM by KINOMEscan analysis relative to control
[7] = biological target: Cyclin-dependent kinase 8 (Homo sapiens) (UniProt P49336); assay: Inhibition of T7 bacteriophage fused human CDK8 at 10 uM by KINOMEscan analysis relative to control
[8] = biological target: LIM domain kinase 2 (Homo sapiens) (UniProt P53671); assay: Inhibition of T7 bacteriophage fused human LIMK2 at 10 uM by KINOMEscan analysis relative to control
[9] = tested on: Tyrosine-protein kinase ABL1 (Homo sapiens), P00519 [H396P]; assay: Inhibition of T7 bacteriophage fused human phosphorylated ABL1 H396P mutant at 10 uM by KINOMEscan analysis relative to control
[10] = biological target: Interleukin-1 receptor-associated kinase 3 (Homo sapiens) (UniProt Q9Y616); assay: Inhibition of T7 bacteriophage fused human IRAK3 at 10 uM by KINOMEscan analysis relative to control
[11] = biological target: Fibroblast growth factor receptor 3 (Homo sapiens) (UniProt P22607); assay: Inhibition of T7 bacteriophage fused human FGFR3 at 10 uM by KINOMEscan analysis relative to control; values are per cent of control
[12] = tested on: Phosphatidylinositol 4,5-bisphosphate 3-kinase catalytic subunit alpha isoform (Homo sapiens), P42336 [H1047L]; assay: Inhibition of T7 bacteriophage fused human PIK3CA H1047L mutant at 10 uM by KINOMEscan analysis relative to control
[13] = biological target: Fibroblast growth factor receptor 4 (Homo sapiens) (UniProt P22455); assay: Inhibition of T7 bacteriophage fused human FGFR4 at 10 uM by KINOMEscan analysis relative to control; values are per cent of control
[14] = biological target: Dual specificity protein kinase CLK4 (Homo sapiens) (UniProt Q9HAZ1); assay: Inhibition of T7 bacteriophage fused human CLK4 at 10 uM by KINOMEscan analysis relative to control
[15] = biological target: Death-associated protein kinase 1 (Homo sapiens) (UniProt P53355); assay: Inhibition of T7 bacteriophage fused human DAPK1 at 10 uM by KINOMEscan analysis relative to control; values are per cent of control
[16] = biological target: Serine/threonine-protein kinase NIM1 (Homo sapiens) (UniProt Q8IY84); assay: Inhibition of T7 bacteriophage fused human NIM1 at 10 uM by KINOMEscan analysis relative to control
[17] = biological target: Membrane-associated tyrosine- and threonine-specific cdc2-inhibitory kinase (Homo sapiens) (UniProt Q99640); assay: Inhibition of T7 bacteriophage fused human PKMYT1 at 10 uM by KINOMEscan analysis relative to control
[18] = biological target: LIM domain kinase 1 (Homo sapiens) (UniProt P53667); assay: Inhibition of T7 bacteriophage fused human LIMK1 at 10 uM by KINOMEscan analysis relative to control; values are per cent of control
[19] = biological target: Cyclin-dependent kinase 15 (Homo sapiens) (UniProt Q96Q40); assay: Inhibition of T7 bacteriophage fused human PFTAIRE2 at 10 uM by KINOMEscan analysis relative to control
[20] = biological target: Serine/threonine-protein kinase Nek9 (Homo sapiens) (UniProt Q8TD19); assay: Inhibition of T7 bacteriophage fused human NEK9 at 10 uM by KINOMEscan analysis relative to control
[21] = biological target: Mitogen-activated protein kinase kinase kinase 6 (Homo sapiens) (UniProt O95382); assay: Inhibition of T7 bacteriophage fused human ASK2 at 10 uM by KINOMEscan analysis relative to control
[22] = biological target: Ribosomal protein S6 kinase alpha-1 (Homo sapiens) (UniProt Q15418); assay: Inhibition of T7 bacteriophage fused human N-terminal RSK1 Kinase domain-1 at 10 uM by KINOMEscan analysis relative to control
[23] = biological target: Mitogen-activated protein kinase 9 (Homo sapiens) (UniProt P45984); assay: Inhibition of T7 bacteriophage fused human JNK2 at 10 uM by KINOMEscan analysis relative to control
[24] = biological target: Serine/threonine-protein kinase PAK 6 (Homo sapiens) (UniProt Q9NQU5); assay: Inhibition of T7 bacteriophage fused human PAK6 at 10 uM by KINOMEscan analysis relative to control
[25] = tested on: Fibroblast growth factor receptor 3 (Homo sapiens), P22607 [G697C]; assay: Inhibition of T7 bacteriophage fused human FGFR3 G697C mutant at 10 uM by KINOMEscan analysis relative to control
[26] = biological target: Receptor-type tyrosine-protein kinase FLT3 (Homo sapiens) (UniProt P36888); assay: Inhibition of T7 bacteriophage fused human FLT3 at 10 uM by KINOMEscan analysis relative to control
[27] = tested on: Tyrosine-protein kinase ABL1 (Homo sapiens), P00519 [Q252H]; assay: Inhibition of T7 bacteriophage fused human nonphosphorylated ABL1 Q252H mutant at 10 uM by KINOMEscan analysis relative to control
[28] = biological target: Homeodomain-interacting protein kinase 2 (Homo sapiens) (UniProt Q9H2X6); assay: Inhibition of T7 bacteriophage fused human HIPK2 at 10 uM by KINOMEscan analysis relative to control
[29] = biological target: Serine/threonine-protein kinase D2 (Homo sapiens) (UniProt Q9BZL6); assay: Inhibition of T7 bacteriophage fused human PRKD2 at 10 uM by KINOMEscan analysis relative to control
[30] = biological target: Serine/threonine-protein kinase Chk2 (Homo sapiens) (UniProt O96017); assay: Inhibition of CHK2 Lys2 labeling site in human PC-3 cell lysate at 10 uM by KiNativ profiling analysis relative to control; type: subcellular

Serine/threonine-protein kinase Nek9 (Homo sapiens), sequence (Q8TD19 whole entry, the tested form may be a part): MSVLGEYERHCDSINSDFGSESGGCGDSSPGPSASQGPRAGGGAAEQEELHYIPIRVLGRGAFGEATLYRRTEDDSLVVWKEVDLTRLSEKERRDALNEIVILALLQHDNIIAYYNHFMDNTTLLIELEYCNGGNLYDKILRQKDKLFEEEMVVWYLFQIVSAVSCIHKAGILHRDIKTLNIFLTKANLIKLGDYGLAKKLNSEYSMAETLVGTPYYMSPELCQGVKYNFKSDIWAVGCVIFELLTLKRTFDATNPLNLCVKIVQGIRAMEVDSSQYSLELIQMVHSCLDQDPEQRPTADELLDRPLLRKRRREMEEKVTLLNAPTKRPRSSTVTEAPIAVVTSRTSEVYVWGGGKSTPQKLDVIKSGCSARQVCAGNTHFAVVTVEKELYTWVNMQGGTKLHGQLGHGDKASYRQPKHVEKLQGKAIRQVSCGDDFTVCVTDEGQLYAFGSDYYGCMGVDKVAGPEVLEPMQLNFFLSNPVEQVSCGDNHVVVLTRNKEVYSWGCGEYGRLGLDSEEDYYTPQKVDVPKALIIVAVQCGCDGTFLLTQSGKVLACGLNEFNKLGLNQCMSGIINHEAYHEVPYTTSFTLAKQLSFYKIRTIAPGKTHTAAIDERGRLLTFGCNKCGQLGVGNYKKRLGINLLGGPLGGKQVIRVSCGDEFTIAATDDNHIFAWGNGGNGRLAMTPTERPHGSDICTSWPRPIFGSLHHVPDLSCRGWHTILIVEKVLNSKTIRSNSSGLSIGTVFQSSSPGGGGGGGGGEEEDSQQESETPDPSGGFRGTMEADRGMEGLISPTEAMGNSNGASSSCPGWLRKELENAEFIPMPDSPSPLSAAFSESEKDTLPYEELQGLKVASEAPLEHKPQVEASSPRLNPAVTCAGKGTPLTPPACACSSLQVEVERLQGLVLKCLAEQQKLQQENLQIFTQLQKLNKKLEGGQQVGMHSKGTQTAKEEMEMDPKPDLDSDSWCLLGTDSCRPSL
Mitogen-activated protein kinase kinase kinase 6 (Homo sapiens), sequence (O95382 whole entry, the tested form may be a part): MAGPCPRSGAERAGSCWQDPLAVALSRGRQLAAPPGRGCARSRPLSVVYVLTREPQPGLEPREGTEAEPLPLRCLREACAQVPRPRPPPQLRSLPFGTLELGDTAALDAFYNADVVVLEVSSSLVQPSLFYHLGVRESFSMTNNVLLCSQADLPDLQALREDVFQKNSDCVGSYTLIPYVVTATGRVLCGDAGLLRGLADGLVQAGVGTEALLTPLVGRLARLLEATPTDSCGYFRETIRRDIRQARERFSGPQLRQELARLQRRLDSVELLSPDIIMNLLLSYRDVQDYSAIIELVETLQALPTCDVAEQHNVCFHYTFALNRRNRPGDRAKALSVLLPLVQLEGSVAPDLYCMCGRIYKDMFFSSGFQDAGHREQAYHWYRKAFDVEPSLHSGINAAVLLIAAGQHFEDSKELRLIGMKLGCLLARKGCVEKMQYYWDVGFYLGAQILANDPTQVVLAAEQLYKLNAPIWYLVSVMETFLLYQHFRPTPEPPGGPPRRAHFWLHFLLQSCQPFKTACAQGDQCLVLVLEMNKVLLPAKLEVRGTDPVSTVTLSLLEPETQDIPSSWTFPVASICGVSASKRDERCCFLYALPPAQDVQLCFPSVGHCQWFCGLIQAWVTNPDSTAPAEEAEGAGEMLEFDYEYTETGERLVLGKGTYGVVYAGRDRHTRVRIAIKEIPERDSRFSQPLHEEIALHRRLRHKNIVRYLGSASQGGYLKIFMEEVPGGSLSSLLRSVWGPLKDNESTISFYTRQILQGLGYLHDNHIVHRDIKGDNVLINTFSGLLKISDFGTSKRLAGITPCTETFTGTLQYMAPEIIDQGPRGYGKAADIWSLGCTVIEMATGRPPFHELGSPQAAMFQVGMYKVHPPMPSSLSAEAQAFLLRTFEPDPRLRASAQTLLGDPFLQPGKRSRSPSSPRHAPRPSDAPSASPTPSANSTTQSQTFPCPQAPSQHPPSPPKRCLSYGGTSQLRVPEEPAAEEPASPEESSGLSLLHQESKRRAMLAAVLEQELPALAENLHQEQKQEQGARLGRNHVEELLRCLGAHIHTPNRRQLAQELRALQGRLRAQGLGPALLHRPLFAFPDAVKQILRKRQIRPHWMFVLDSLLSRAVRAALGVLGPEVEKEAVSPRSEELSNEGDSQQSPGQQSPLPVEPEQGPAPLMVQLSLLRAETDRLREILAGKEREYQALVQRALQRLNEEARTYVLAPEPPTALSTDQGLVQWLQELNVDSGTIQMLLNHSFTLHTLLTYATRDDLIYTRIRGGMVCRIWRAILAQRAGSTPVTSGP
Homeodomain-interacting protein kinase 2 (Homo sapiens), sequence (Q9H2X6 whole entry, looked up, the tested form may be a part): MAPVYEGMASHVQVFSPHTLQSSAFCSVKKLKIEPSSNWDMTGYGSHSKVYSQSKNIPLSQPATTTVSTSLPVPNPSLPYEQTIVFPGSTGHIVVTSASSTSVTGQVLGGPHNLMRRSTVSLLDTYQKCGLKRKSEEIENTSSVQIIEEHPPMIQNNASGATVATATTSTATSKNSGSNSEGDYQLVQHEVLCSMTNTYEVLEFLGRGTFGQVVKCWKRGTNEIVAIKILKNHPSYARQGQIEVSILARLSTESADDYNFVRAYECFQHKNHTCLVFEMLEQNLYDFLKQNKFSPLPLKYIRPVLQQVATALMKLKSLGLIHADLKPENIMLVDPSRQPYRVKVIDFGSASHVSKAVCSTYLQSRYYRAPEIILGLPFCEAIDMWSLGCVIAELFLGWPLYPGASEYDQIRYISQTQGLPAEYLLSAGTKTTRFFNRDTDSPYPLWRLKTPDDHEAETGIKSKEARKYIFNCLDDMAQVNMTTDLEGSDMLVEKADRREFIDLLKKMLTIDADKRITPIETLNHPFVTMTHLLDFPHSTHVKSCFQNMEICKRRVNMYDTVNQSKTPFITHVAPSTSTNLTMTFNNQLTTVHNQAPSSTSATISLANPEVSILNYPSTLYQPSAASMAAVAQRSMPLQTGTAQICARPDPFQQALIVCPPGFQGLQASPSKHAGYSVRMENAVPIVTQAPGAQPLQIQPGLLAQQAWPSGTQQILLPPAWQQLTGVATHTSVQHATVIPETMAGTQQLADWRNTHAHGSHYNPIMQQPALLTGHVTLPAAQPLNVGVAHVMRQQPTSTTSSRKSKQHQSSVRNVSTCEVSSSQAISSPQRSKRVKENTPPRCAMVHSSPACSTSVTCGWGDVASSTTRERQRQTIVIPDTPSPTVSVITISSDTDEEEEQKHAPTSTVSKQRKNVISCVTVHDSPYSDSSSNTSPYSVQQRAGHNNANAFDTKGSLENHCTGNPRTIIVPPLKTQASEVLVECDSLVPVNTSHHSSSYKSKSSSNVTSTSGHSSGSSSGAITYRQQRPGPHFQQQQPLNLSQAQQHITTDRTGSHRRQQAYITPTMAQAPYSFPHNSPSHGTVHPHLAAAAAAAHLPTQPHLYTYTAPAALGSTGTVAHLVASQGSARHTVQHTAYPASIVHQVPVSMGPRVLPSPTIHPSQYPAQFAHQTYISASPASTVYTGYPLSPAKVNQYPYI
Serine/threonine-protein kinase D2 (Homo sapiens), sequence (Q9BZL6 whole entry, the tested form may be a part): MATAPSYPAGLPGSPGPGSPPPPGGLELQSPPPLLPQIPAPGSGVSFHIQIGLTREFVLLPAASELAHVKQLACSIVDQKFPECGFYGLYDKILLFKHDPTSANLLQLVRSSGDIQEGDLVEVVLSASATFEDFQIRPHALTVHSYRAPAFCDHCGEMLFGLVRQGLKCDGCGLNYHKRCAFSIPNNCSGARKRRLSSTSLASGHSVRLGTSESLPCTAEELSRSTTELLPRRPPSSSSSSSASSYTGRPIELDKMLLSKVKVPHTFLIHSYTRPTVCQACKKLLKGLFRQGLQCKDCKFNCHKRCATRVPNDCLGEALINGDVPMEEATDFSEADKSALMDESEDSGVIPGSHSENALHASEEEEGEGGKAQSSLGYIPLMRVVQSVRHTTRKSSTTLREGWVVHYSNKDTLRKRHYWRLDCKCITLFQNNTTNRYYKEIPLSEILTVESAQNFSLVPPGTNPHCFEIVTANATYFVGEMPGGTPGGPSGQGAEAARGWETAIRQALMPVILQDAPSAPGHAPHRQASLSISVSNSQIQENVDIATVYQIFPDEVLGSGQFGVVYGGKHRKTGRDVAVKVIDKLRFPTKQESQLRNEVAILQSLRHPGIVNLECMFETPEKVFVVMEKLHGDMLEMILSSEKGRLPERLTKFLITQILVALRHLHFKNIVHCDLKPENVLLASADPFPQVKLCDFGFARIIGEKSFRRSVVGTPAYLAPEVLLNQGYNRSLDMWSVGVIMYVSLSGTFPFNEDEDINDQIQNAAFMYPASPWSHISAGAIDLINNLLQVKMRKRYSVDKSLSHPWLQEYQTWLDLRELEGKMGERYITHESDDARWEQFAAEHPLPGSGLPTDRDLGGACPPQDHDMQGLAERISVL
LIM domain kinase 1 (Homo sapiens), sequence (P53667 whole entry, looked up, the tested form may be a part): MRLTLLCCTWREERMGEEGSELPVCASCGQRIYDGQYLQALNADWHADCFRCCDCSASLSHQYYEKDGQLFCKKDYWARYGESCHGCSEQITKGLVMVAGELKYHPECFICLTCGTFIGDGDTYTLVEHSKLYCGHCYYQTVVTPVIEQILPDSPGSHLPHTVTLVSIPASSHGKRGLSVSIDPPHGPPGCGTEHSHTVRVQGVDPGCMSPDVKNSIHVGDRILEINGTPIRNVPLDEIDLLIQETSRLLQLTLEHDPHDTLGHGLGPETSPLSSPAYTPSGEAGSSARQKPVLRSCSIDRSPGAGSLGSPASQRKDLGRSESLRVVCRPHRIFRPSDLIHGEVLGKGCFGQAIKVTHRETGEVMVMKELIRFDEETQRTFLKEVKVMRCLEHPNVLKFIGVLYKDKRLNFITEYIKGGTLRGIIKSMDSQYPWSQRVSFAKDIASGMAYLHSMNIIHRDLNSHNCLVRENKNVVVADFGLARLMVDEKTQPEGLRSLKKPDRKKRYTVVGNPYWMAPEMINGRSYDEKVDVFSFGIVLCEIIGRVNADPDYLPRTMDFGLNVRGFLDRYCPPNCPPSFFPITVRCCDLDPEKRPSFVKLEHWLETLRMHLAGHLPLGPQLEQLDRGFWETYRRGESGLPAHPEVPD

Q: How did the residual activity [1] turn out when `COc1cc(N2CCC(N3CCN(C)CC3)CC2)ccc1Nc1ncc2c(n1)N(C)c1ccccc1C(=O)N2C` was run?
A: Its residual activity is 67%.

Q: What about the inhibition [2] of the same compound?
A: Its inhibition is 67%.

Q: And the inhibition [3]?
A: The inhibition was 100%.

Q: What about the residual activity [4] of the same compound?
A: Its residual activity is 95%.

Q: And the inhibition [5]?
A: The inhibition was 100%.

Q: And the inhibition [6]?
A: The inhibition was 100%.

Q: And the inhibition [7]?
A: The inhibition was 100%.

Q: And the inhibition [8]?
A: The inhibition was 100%.

Q: And the inhibition [9]?
A: The inhibition was 100%.

Q: And the inhibition [10]?
A: Its inhibition is 100%.

Q: What about the residual activity [11] of the same compound?
A: The residual activity was 80%.

Q: And the inhibition [12]?
A: Its inhibition is 20%.

Q: And the residual activity [13]?
A: Its residual activity is 28%.

Q: What about the inhibition [14] of the same compound?
A: The inhibition was 54%.

Q: And the residual activity [15]?
A: Its residual activity is 73%.

Q: And the inhibition [16]?
A: Its inhibition is 100%.

Q: And the inhibition [17]?
A: Its inhibition is 80%.

Q: What about the residual activity [18] of the same compound?
A: Its residual activity is 95%.

Q: And the inhibition [19]?
A: The inhibition was 100%.

Q: What about the inhibition [20] of the same compound?
A: Its inhibition is 100%.

Q: What about the inhibition [21] of the same compound?
A: Its inhibition is 100%.

Q: What about the inhibition [22] of the same compound?
A: The inhibition was 73%.

Q: And the inhibition [23]?
A: Its inhibition is 94%.

Q: What about the inhibition [24] of the same compound?
A: Its inhibition is 98%.

Q: And the inhibition [25]?
A: The inhibition was 85%.

Q: What about the inhibition [26] of the same compound?
A: Its inhibition is 100%.

Q: And the inhibition [27]?
A: The inhibition was 100%.

Q: What about the inhibition [28] of the same compound?
A: Its inhibition is 88%.

Q: What about the inhibition [29] of the same compound?
A: Its inhibition is 59%.

Q: With `COc1cc(C(=O)N2CCC(N3CCN(C)CC3)CC2)ccc1Nc1ncc2c(n1)N(C1CCCC1)c1ccccc1C(=O)N2C` as the compound, how does the inhibition [30] read?
A: Its inhibition is 0%.
